We go through one substance from patent publication US20220168258A1, “METHOD FOR TREATING FEMALE NON-SMOKERS WITH NON-SMALL CELL LUNG CANCER” (Lantern Pharma Inc., priority 2019, published 2022).

For data set [1], the system named is female adenocarcinoma patients. Conditions: double-blind, placebo-controlled trial, Japan.
Data set [2] concerns chemotherapy-induced toxicities. Particulars: human, in vivo.
Data set [3] deals with NSCLC adenocarcinoma patients.

In the case of disodium 2′-dithio-bis-ethane, the “survival result in female adenocarcinoma patients” value in data set [1] is “Consistent statistically significant results”. In data set [2], the anemia result is “reduced anemia”; the chemotherapy-induced kidney toxicity result was “protection against chemotherapy-induced kidney toxicity”; the “neuropathy and other chemotherapy-induced toxicities” value is on record as “protect against neuropathy & other chemotherapy-induced toxicities”. For the same substance, the “survival in all genders and smoking status groups” value in data set [3] (all genders and smoking status groups) is reported as “marginally increased survival”. The “clinical efficacy endpoints and subgroup responses” value in data set [3] (background statement) was “did not meet clinical efficacy endpoints”. Moreover, the “survival in female non-smokers” value in data set [3] (female non-smokers, increase from 13 months) was 25 months. Also, the “percentage of patients undergoing treatment failure (FIG. 3)” value in data set [3] (females non-smokers) is listed as “the least”. This substance also registered a 2-year survival in data set [3] (females with advanced adenocarcinoma of the lung receiving paclitaxel/cisplatin) of 51.4%. The substance also displayed an overall survival in data set [3] (females with advanced adenocarcinoma of the lung receiving paclitaxel/cisplatin, subgroup of 114 female patients, retrospective analysis) of 25.0 months. For the same substance, in data set [3] (females, non-smokers and female non-smokers receiving Cisplatin/Paclitaxel), the “overall survival benefit (FIG. 1)” value is “remarkable survival benefit”. Further, in data set [3] (non-smokers), the “percentage of patients undergoing treatment failure (FIG. 2)” value is recorded as “the least”. Further, the “HR (overall survival)” value in data set [3] (subgroup of 114 female patients, retrospective analysis, p-value=0.0477) is listed as 0.579.
